{"source": "patent US20250276127A1", "about": "“THERAPEUTIC METHODS AND DEVICES” (NORWEGIAN UNIVERSITY OF SCIENCE AND TECHNOLOGY (NTNU), priority 2021, published 2025)", "format_in_all_cases": "in vivo, human", "key": {"[1]": {"tested_on": "blood flow in the skin", "experiment": "Local skin blood flow by laser Doppler after subcutaneous injection", "source_text": "Likewise, the compound with glucagon activity may be administered in an amount which is effective to achieve a local vasodilatory effect, or an effect of increasing local blood flow at the site of its administration. Vasodilatory activity may be assessed, or determined, by measuring blood flow by a laser Doppler method, at an administration site on or in a human or non-human animal subject after administration of the compound. For example, the compound may be injected SC and blood flow just below the skin surface may be determined at the injection site. Such a method is described in Example 1. However, for the methods and uses herein where the compound is used for its effect in the delivery of a therapeutically active agent (e.g. insulin) or in conjunction with the operation of a sensor (e.g. glucose sensor), it is not necessary, and indeed it may be undesirable, for the compound to exert its usual therapeutic effect of increasing blood glucose, or counteracting an episode of hypoglycaemia. The amount, or dose, administered may thus be less, and indeed typically will be less, than a dose which is administered, or typically used, to treat hypoglycaemia. Doses for the compound are discussed in more detail below.\nAn experiment was performed on 2 young healthy adult human volunteers. The effect of subcutaneous (hereinafter, SC) injections on blood flow in the skin were tested 6 times in the 2 subjects (4 tests in a subject and 2 tests in a subject). The glucagon was administered by SC injection of 0.1 ml of 1 mg/ml glucagon (i.e. an injection containing 0.1 mg of glucagon) to sites on the lateral side of both upper arms of the subjects. Blood flow was measured on the skin surface at the site of administration by laser Doppler technology. As a control the same volume of physiological saline (0.9%) was injected as a placebo at the same sites.\nThis effect was further investigated in a similar experiment with varying doses of glucagon. Again, the same 2 subjects were used, and SC injections of glucagon or placebo were given 6 times (4 tests in a subject and 2 tests in a subject). The glucagon was administered to sites on the lateral sides of both upper arms in amounts of 0.1 mg, 0.015 mg and 0.01 mg (0.1 ml of glucagon at concentrations of 0.1 mg/ml, 0.015 mg/ml and 0.01 mg/ml, respectively). Blood flow was measured on the skin surface at the site of administration by laser Doppler technology. As a control the same volume of physiological saline (0.9%) was injected as a placebo at the same sites.\nFurther experiments were conducted to investigate the effect on local blood flow of subcutaneous injections of glucagon in the abdomen. Again, 2 subjects were used, and SC injections of glucagon or placebo were given 6 times (3 tests in a subject and 3 tests in a subject). The glucagon was administered by SC injection of 0.1 ml of 1 mg/ml glucagon (i.e. an injection containing 0.1 mg of glucagon) to sites on both sides of the abdomen of the subjects. Blood flow was measured on the skin surface at the site of administration by laser Doppler technology. As a control the same volume of physiological saline (0.9%) was injected as a placebo at the same sites.\nThis effect was further investigated in a similar experiment with varying doses of glucagon. Again, 2 subjects were used, and SC injections of glucagon or placebo were given 6 times (3 tests in a subject and 3 tests in a subject). The glucagon was administered to sites on both sides of the abdomen in amounts of 0.1 mg, 0.05 mg and 0.015 mg (0.1 ml of glucagon at concentrations of 0.1 mg/ml, 0.05 mg/ml and 0.015 mg/ml, respectively). Blood flow was measured on the skin surface at the site of administration by laser Doppler technology. As a control the same volume of physiological saline (0.9%) was injected as a placebo at the same sites. […]"}, "[2]": {"tested_on": "local blood flow", "experiment": "Impact of laser Doppler probe placement on measured local blood flow", "details": "0.015 mg SC, upper arms", "protocol": "The impact of the placement of the laser Doppler probe on the measured effect of glucagon injections on local blood flow was investigated by giving injections at multiple sites with varying distances from the probe. The experiment involved the subcutaneous injection of 0.015 mg of glucagon (in 0.1 ml) or 0.1 ml of 0.9% saline as a control at sites on the lateral sides of the upper arms of the subjects. The injections were given either under the probe, 1.6 cm from the probe centre, 3 cm from the probe centre, or 5 cm from the probe centre. In each case, 6 injections were given, except for 1.6 cm from the probe centre where only 4 saline injections were given. In all cases, half of the injections were given to a subject and half to a subject, except for under the probe, where 4 tests were done on the subject and 2 on the subject. Blood flow was measured on the skin surface by laser Doppler technology."}, "[3]": {"tested_on": "local blood flow", "experiment": "Impact of injection technique (speed) on local blood flow, laser Doppler", "details": "abdomen", "protocol": "To observe the impact of injection technique, and particularly speed of injection, on the effect induced by subcutaneous injection of glucagon, an experiment was conducted to compare 2 different injection techniques; one where the injection lasted 1-3 seconds (technique 1), and one where the injection lasted at least 10 seconds (technique 2). 6 injections were given with technique 1 and 4 injections were given with technique 2. In each case, 0.1 mg of glucagon (in a 0.1 ml injection) was injected subcutaneously into the abdomen of the subjects. For each technique, half of the injections were given to a subject and half to a subject. Blood flow was measured on the skin surface at the site of administration by laser Doppler technology.\nIn addition, in FIG. 21 the same results are shown together with the results of placebo injections of 0.1 ml of 0.9% saline using the same 2 techniques. For technique 1, 6 placebo injections were given, and for technique 2, 2 placebo injections were given. Again, half of the injections with each technique were done in a subject, and half were done in a subject."}, "[4]": {"tested_on": "glucose levels detected by CGM", "experiment": "CGM (Dexcom G6) glucose sensing at meals with injection at the sensor site", "details": "FIG. 26", "protocol": "This effect was further investigated in a similar experiment to investigate the effect of glucagon on the performance of CGMs. Again, 2 subjects were used showing data from 12 meals in a non-diabetic […] and 11 meals in a non-diabetic […] collected with Dexcom G6 CGMs. The subjects wore two CGMs placed symmetrically on the lateral side of each overarm. 1-3 minutes before the start of ingesting the meal 0.1 ml of glucagon (1 mg/ml) was injected at the site of one CGM and 0.1 ml of placebo (saline (0.9%) on the contralateral site of CGM. Before each meal, the site of glucagon delivery was decided by a new randomization."}}, "data": [{"substance": "glucagon", "values": [{"measurement": "increase in local blood flow relative to higher doses", "setting": "[1]; 0.01 mg SC, lateral upper arms, FIG. 15", "value": "similar, although less pronounced"}, {"measurement": "effect on local blood flow relative to control injection", "setting": "[1]; 0.01 mg SC, thighs, FIG. 23/24", "value": "did not appear to have a significant effect on local blood flow"}, {"measurement": "effect on local blood flow relative to control injection", "setting": "[1]; 0.015 mg SC, abdomen, FIG. 18/19", "value": "did not appear to have a significant effect on local blood flow"}, {"measurement": "increase in local blood flow", "setting": "[1]; 0.015 mg SC, lateral upper arms, average of 6 tests, FIG. 15", "value": "400-450 % of the baseline reading"}, {"measurement": "increase in local blood flow among doses", "setting": "[1]; 0.03 mg SC, thighs, FIG. 23/24", "value": "biggest increase in local blood flow"}, {"measurement": "initial increase in local blood flow", "setting": "[1]; 0.05 mg SC, abdomen, FIG. 18/19", "value": "did not result in a significant increase in local blood flow initially"}, {"measurement": "local blood flow versus control injection after 15 minutes", "setting": "[1]; 0.05 mg SC, abdomen, after 15 minutes", "value": "higher than that observed at the same time after the control injection"}, {"measurement": "persistence of increase in local blood flow versus control", "setting": "[1]; 0.05 mg SC, thighs, FIG. 22", "value": "more persistent than that observed following administration of the control"}, {"measurement": "time after which blood flow values of glucagon and placebo were approximately equal", "setting": "[1]; 0.05 mg SC, thighs, FIG. 22", "value": "around 30 minutes"}, {"measurement": "increase in local blood flow versus saline control", "setting": "[1]; 0.05 mg SC, thighs, FIG. 23/24", "value": "slightly larger than that observed following administration of the saline control"}, {"measurement": "persistence of increase in local blood flow versus saline control", "setting": "[1]; 0.05 mg SC, thighs, FIG. 23/24", "value": "significantly more persistent"}, {"measurement": "increase in local blood flow versus saline", "setting": "[1]; 0.05 mg SC, thighs, average of 7 tests, FIG. 22", "value": "slightly greater than that observed when saline was administered"}, {"measurement": "persistence of increase in local blood flow versus control", "setting": "[1]; 0.1 mg SC, abdomen, FIG. 17", "value": "more persistent than that observed following administration of the control"}, {"measurement": "time after which blood flow values of glucagon and placebo were approximately equal", "setting": "[1]; 0.1 mg SC, abdomen, FIG. 17", "value": "around 30 minutes"}, {"measurement": "initial increase in local blood flow versus control", "setting": "[1]; 0.1 mg SC, abdomen, FIG. 18/19", "value": "greater than that seen following the administration of the same control"}, {"measurement": "increase in local blood flow versus saline", "setting": "[1]; 0.1 mg SC, abdomen, average of 6 tests, FIG. 17", "value": "slightly greater than that observed when saline was administered"}, {"measurement": "blood flow after returning to \"normal\" versus before injection", "setting": "[1]; 0.1 mg SC, lateral upper arms, FIG. 14", "value": "increased compared to before the glucagon injection"}, {"measurement": "effect on local blood flow (flow increase)", "setting": "[1]; 0.1 mg SC, lateral upper arms, average of 6 tests, FIG. 14", "value": "several hundred percent"}, {"measurement": "increase in local blood flow", "setting": "[1]; 0.1 mg SC, lateral upper arms, average of 6 tests, FIG. 15", "value": "400-450 % of the baseline reading"}, {"measurement": "period over which the vasodilatory effect can be seen", "setting": "[1]; SC, upper arms, FIG. 15", "value": "35 to 40", "unit": "min"}, {"measurement": "increase of blood flow at the site of administration", "setting": "[1]; administered sub-cutaneously, small blood vessels in the skin (summary statement)", "value": "several hundred percent"}, {"measurement": "persistence of increase in blood flow", "setting": "[1]; all doses (0.1, 0.015, 0.01 mg) SC, upper arms, not seen with placebo", "value": "found to persist even once the value had stabilised"}, {"measurement": "dose at which a vasodilatory effect has been observed", "setting": "[1]; in certain body regions, in some subjects", "value": "< 0.01", "unit": "mg"}, {"measurement": "change in local blood flow on administration", "setting": "[1]; summary of the Examples", "value": "immediate and large increase in local blood flow"}, {"measurement": "level to which blood flow returns", "setting": "[1]; summary of the Examples, maintained over a prolonged period", "value": "higher than the baseline level before glucagon administration"}, {"measurement": "effect on blood flow versus placebo", "setting": "[2]; injection 1.6 cm or 3 cm from probe centre", "value": "larger than placebo"}, {"measurement": "effect on blood flow versus placebo", "setting": "[2]; injection 5 cm from probe centre", "value": "except for injection 5 cm from the probe the effect was larger than placebo"}, {"measurement": "increase in local blood flow, placebo subtracted", "setting": "[2]; injection at greater distances (1.6, 3 or 5 cm from probe centre)", "value": "less significant"}, {"measurement": "increase in local blood flow, placebo subtracted", "setting": "[2]; injection directly under the probe, FIG. 25", "value": "largest increase in local blood flow"}, {"measurement": "persistence of effect of the \"slow\" injection on local blood flow", "setting": "[3]; 0.1 mg SC, technique 2, versus fast glucagon and placebo injections", "value": "more persistent than the effects of any of the other injections"}, {"measurement": "increase in local blood flow, technique 2 (injection at least 10 seconds) versus technique 1 (1-3 seconds)", "setting": "[3]; 0.1 mg in 0.1 ml SC, FIG. 20/21", "value": "significantly larger increase in local blood flow"}, {"measurement": "glucose levels detected by CGM after meal versus placebo site", "setting": "[4]; 0.1 ml of 1 mg/ml injected at CGM site 1-3 minutes before meal, overarm, 23 meals", "value": "faster and larger increase in glucose levels detected compared to placebo"}, {"measurement": "time at which the effect on CGM glucose can be clearly seen", "setting": "[4]; in one of the subjects", "value": 10, "unit": "min"}]}]}
